Experimental data published in patent publication US20030158250A1, “Agents correcting gene expression regulatory error” (priority 2000, published 2003).

Assays:
[1] = system: TNFα; test: LPS-stimulated TNFα production in monocytes (ELISA); format: cell-based; details: human monocytes, final concentration 10 μM, 20 μM or 40 μM, 5 hours, then LPS 4 hours
Method: PBMCs were isolated in the same manner as in item (1) of Example 4. PBMCs were suspended in RPMI 1640 medium containing 5% human serum of blood type-AB, 0.1 mM nonessential amino acid, 1 mM sodium pyruvate, 2 mM L-glutamine (hereinabove manufactured by Bio Whittaker), 10 mM HEPES (manufactured by nakalai tesque), and 1% streptomycin-penicillin (manufactured by Gibco BRL) (hereinafter simply referred to as “5HRPMI medium”) so as to have a concentration of 2×10^6 cells/ml. Thereafter, the suspension was spread on a 24-well cell culture plate (manufactured by Falcon) in a volume of 1 ml/well, and the cells were incubated in a wet-type incubator at 37° C. and 5% CO2 for 1.5 hours. After 1.5 hours, the non-adherent cells were removed by suction, and each well was washed with RPMI 1640 medium, and 1 ml of the 5HRPMI medium was added to the wells, to give monocytes.
To the monocytes obtained above was added in each well 10 μl of a 1 mM, 2 mM or 4 mM aqueous DGE solution (each having a final concentration of 10 μM, 20 μM or 40 μM), or a 5 mM, 10 mM or 20 mM aqueous agarobiose solution (each having a final concentration of 50 μM, 100 μM or 200 μM), or 10 μl of water as a control (i.e. each of concentrations of DGE and agarobiose being 0 μM), and the cells were incubated in a wet-type incubator at 37° C. and 5% CO2 for 5 hours. […]

[2] = system: interleukin-6 (IL-6); test: TPA-induced IL-6 production in peritoneal macrophage (ELISA); format: cell-based; details: mouse peritoneal macrophage, final concentrations 20 μM and 10 μM, 14 hours, IL-6 in culture supernatant by ELISA
Method: Four milliliters of a 10% fetal bovine serum-containing RPMI 1640 medium (manufactured by Bio Whittaker, 12-702F) was intraperitoneally injected to ddy mouse (Nippon SLC, female, 7-weeks old), and the mouse was well massaged, and the medium was taken out to obtain peritoneal cells. The peritoneal cells were suspended in the 10% fetal bovine serum-containing RPMI 1640 medium so as to have a concentration of 10^6 cells/ml, and dispensed into 48-well microtiter plate in a volume of 500 μl each. The peritoneal cells were cultured at 37° C. for 2 hours in the presence of 5% CO2 gas. Thereafter, the culture supernatant was removed to give adherent cells to be used as peritoneal macrophage. To each well was freshly dispensed a Dulbecco's modified Eagle's medium (manufactured by Bio Whittaker; 12-917F) without phenol red containing 10% fetal bovine serum and 2 mM L-glutamine in a volume of 500 μl. […] The content of interleukin-6 (IL-6) in the culture supernatant was assayed by enzyme immuno-sandwich assay (ELISA: Matched antibody Pair SamplePak mouse IL-6, manufactured by Endogen). Here, the group with no addition of DGE and TPA aqueous solution (control) was set as a negative control, and the group with addition of TPA aqueous solution alone (control+TPA) was set as a positive control. In addition, all of the assays were carried out twice.

## O=C1C=CC(CO)OC1O [DGE, L-glycero-1,5-epoxy-1αβ,6-dihydroxy-cis-hex-3-en-2-one]
[1]
  inhibition of LPS-stimulated TNFα production: inhibition
[2]
  inhibition of TPA-induced IL-6 production: inhibition of TPA-induced IL-6 production was found DGE-concentration dependently
